According to patent US11957759B1, “Rapidly accelerated fibrosarcoma (RAF) degrading compounds and associated methods of use” (Arvinas Operations, Inc., priority 2022, dated 2024):

Legend:
B-RAF V600E = target: T1, B-RAF V600E (Homo sapiens, UniProt P15056, V600E); experiment: Target protein degradation, assay C: T-Rex 293 cells, HA-BRAF_V600E, 384 well format; assay type: cell-based; details: T-Rex 293 HA-BRAF_V600E cells, 24 hours, Examples 83-269; for DC50: Assay C; for Dmax: T-REx-293, Assay C
T1 construct: expressed in transfected cells; host or cells: T-Rex 293 cells (Invitrogen #R71007)
T1 sequence (P15056 whole entry V600E): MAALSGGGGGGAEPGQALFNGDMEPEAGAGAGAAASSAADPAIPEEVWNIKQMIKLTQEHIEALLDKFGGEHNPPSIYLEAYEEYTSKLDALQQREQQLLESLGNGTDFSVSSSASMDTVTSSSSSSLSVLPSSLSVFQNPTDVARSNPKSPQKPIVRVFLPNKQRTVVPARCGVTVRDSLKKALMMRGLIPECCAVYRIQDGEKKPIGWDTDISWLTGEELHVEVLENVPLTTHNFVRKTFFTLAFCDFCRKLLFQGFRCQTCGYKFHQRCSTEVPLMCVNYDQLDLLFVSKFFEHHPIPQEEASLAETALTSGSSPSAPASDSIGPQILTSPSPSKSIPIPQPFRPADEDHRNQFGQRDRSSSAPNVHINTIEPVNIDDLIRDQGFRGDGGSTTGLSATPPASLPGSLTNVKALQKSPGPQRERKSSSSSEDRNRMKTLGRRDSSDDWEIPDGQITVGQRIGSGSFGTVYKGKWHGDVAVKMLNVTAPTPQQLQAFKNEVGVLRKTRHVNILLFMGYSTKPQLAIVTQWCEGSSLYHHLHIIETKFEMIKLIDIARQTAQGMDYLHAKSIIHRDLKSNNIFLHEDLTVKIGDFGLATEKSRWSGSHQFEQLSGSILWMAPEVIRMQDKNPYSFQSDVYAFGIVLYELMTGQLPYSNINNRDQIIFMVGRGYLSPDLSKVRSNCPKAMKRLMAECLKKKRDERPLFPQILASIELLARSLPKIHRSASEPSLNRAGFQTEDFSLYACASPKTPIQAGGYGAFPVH
Protocol: C. T-Rex 293 Cells (384 Well Format)
(§1) T-Rex 293 cells were purchased from Invitrogen (#R71007), and stably transfected with a pcDNA4/TO_HA-BRAF_V600E construct, using 400 ug Zeocin for selection. V600E cells are plated in DMEM media (Gibco #11965118) containing 10% FBS (Gibco #16000044), 1% penicillin-streptomycin (ThermoFisher #15140122), 1:250 zeocin (Invitrogen #R-25005), and 1 ng/mL doxycycline (Selleckchem #4163) at a density of 7,500 cells/well in 45 μl on PDL coated, black clear bottom 384 well plates (Corning #354663) and incubated at 37° C.+5% CO2 for 24 hours. The following day, PROTAC compounds in a 1:3 11 point dilution are diluted into DMEM media using an Agilent Bravo. 5 ul of PROTACs suspended in DMEM media are added to the cells, with a final assay concentration ranging from 300 nM to 5 pM in 0.5% DMSO. Plates are incubated at 37° C.+5% CO2 for 24 hours. At the end of treatment, media is aspirated, and cells are fixed in 50 uL 4% PFA (EMS #15710) in PBS++(PBS, 1 mM CaCl, 1 mM MgCl) at RT for 15 minutes. Cells are washed 2× with 60 uL PBS++ and permeabilized in 50 uL 1% Triton X-100 (Sigma #93443) in PBS++ for 5 minutes at RT. Cells are washed in PBS++ prior to blocking with 50 uL Licor blocking buffer (Licor #927-60001) for 1 hour at RT. HA-tagged BRAF was stained using 50 uL HA antibody (CST #3724) at 1:1000 in Licor blocking buffer for two hours at RT. Primary is aspirated before adding 50 ul of secondary antibody solution containing 1:1000 Hoechst (ThermoFisher #62249), 1:1000 HCS CellMask Deep Red Stain (ThermoFisher #H32721), and 1:5000 goat anti-rabbit IgG Alexa-Fluor 488 (ThermoFisher #A32731) in PBS++ for 1 hr at RT. Plates are washed 4× with 60 uL PBS++, then sealed with Adhesive Black Light Absorbing Film (VWR #89087-692) and imaged on the ThermoFisher CX7 PRO high content instrument. BRAF intensity is quantified in HCS Studio software (ThermoFisher), using a custom script, exported, analyzed using KNIME, and curve curation is performed in an ELN (Scilligence). Cell toxicity is measured via comparing number of nuclei in PROTAC treated wells to DMSO controls.
(§2) The concentration of an exemplary compound that leads to half maximal degradation (DC50) as well as the maximum degradation observed (Dmax, conventionally expressed as a percentage of control) is shown below in Table 2.

B-RAF G466V = target: T2, B-RAF G466V (Homo sapiens, UniProt P15056, G466V); experiment: Target protein degradation, assay D: T-Rex 293 cells, HA-BRAF_G466V, 384 well format; assay type: cell-based; details: T-Rex 293 HA-BRAF_G466V cells, 24 hours, Examples 83-269; for Dmax: T-REx-293, Assay D
T2 construct: expressed in transfected cells; host or cells: T-Rex 293 cells (Invitrogen #R71007)
T2 sequence (P15056 whole entry G466V): as the sequence (P15056 whole entry V600E) above, with G466V, E600V counted along it
Protocol: D. T-Rex 293 Cells (384 Well Format)
as §1, with “pcDNA4/TO_HA-BRAF_G466V” for “pcDNA4/TO_HA-BRAF_V600E”, “G466V” for “V600E”
as §2

SMILES	DC50 (B-RAF V600E)	DC50 (B-RAF G466V; Assay D)	Dmax (B-RAF V600E)	Dmax (B-RAF G466V)	B-RAF G466V DMax (%) (B-RAF G466V; Assay D)
Cc1c(N2CCC(CN3CCN(c4ccc(-n5cnc6ccc(Oc7c(F)ccc(NS(=O)(=O)N8CC[C@@H](F)C8)c7C#N)cc6c5=O)cc4)CC3)CC2)ccc2c1CN(C1CCC(=O)NC1=O)C2=O (single isomer, unassigned) [Example 113, (3R)-N-(2-cyano-3-{[3-(4-{4-[(1-{2-[(3R*)-2,6-dioxopiperidin-3-yl]-4-methyl-1-oxo-2,3-dihydro-1H-isoindol-5-yl}piperidin-4-yl)methyl]piperazin-1-yl}phenyl)-4-oxo-3,4-dihydroquinazolin-6-yl]oxy}-4-fluorophenyl)-3-fluoropyrrolidine-1-sulfonamide]	50 to 500 nM	1 to 10 nM			
N#Cc1c(NS(=O)(=O)N2CC[C@@H](F)C2)ccc(F)c1Oc1ccc2ncn(-c3ccc(N4CC(CN5CCN(C6CCN(c7ccc8c(c7)CN(C7CCC(=O)NC7=O)C8=O)CC6)CC5)C4)cc3)c(=O)c2c1 (single isomer, unassigned) [Example 197, (3R)-N-[2-cyano-3-({3-[4-(3-{[4-(1-{2-[(3R*)-2,6-dioxopiperidin-3-yl]-1-oxo-2,3-dihydro-1H-isoindol-5-yl}piperidin-4-yl)piperazin-1-yl]methyl}azetidin-1-yl)phenyl]-4-oxo-3,4-dihydroquinazolin-6-yl}oxy)-4-fluorophenyl]-3-fluoropyrrolidine-1-sulfonamide]	50 to 500 nM	1 to 10 nM	≤ 35%	35 to 70%	
N#Cc1c(NS(=O)(=O)N2CC[C@@H](F)C2)ccc(F)c1Oc1ccc2ncn(-c3ccc(N4CC(CN5CCN(C6CCN(c7ccc8c(c7)CN(C7CCC(=O)NC7=O)C8=O)CC6)CC5)C4)cc3)c(=O)c2c1 (single isomer, unassigned) [Example 198, (3R)-N-[2-cyano-3-({3-[4-(3-{[4-(1-{2-[(3R*)-2,6-dioxopiperidin-3-yl]-1-oxo-2,3-dihydro-1H-isoindol-5-yl}piperidin-4-yl)piperazin-1-yl]methyl}azetidin-1-yl)phenyl]-4-oxo-3,4-dihydroquinazolin-6-yl}oxy)-4-fluorophenyl]-3-fluoropyrrolidine-1-sulfonamide]	50 to 500 nM	1 to 10 nM			
N#Cc1c(NS(=O)(=O)N2CC[C@@H](F)C2)ccc(F)c1Oc1ccc2ncn(-c3ccc(N4CCN(C(=O)C5CCN(c6ccc7c(c6)CN(C6CCC(=O)NC6=O)C7=O)CC5)CC4)cc3)c(=O)c2c1 (single isomer, unassigned) [Example 241, (3R)-N-{2-cyano-3-[(3-{4-[4-(1-{2-[(3R*)-2,6-dioxopiperidin-3-yl]-1-oxo-2,3-dihydro-1H-isoindol-5-yl}piperidine-4-carbonyl)piperazin-1-yl]phenyl}-4-oxo-3,4-dihydroquinazolin-6-yl)oxy]-4-fluorophenyl}-3-fluoropyrrolidine-1-sulfonamide]	> 500 nM	> 30 nM		35 to 70%	
N#Cc1c(NS(=O)(=O)N2CC[C@@H](F)C2)ccc(F)c1Oc1ccc2ncn(-c3ccc(N4CCN(C(=O)C5CCN(c6ccc7c(c6)CN(C6CCC(=O)NC6=O)C7=O)CC5)CC4)cc3)c(=O)c2c1 (single isomer, unassigned) [Example 242, (3R)-N-{2-cyano-3-[(3-(4-[4-(1-{2-[(3R*)-2,6-dioxopiperidin-3-yl]-1-oxo-2,3-dihydro-1H-isoindol-5-yl}piperidine-4-carbonyl)piperazin-1-yl]phenyl}-4-oxo-3,4-dihydroquinazolin-6-yl)oxy]-4-fluorophenyl}-3-fluoropyrrolidine-1-sulfonamide]	> 500 nM	10 to 30 nM			C (C ≤ 35)
N#Cc1c(NS(=O)(=O)N2CC[C@@H](F)C2)ccc(F)c1Oc1ccc2ncn(-c3cccc(C4CCN(CC5CCN(c6ccc7c(c6)CN([C@H]6CCC(=O)NC6=O)C7=O)CC5)C4)c3)c(=O)c2c1 (single isomer, unassigned) [Example 257, (3R)-N-{2-cyano-3-[(3-{3-[(3R*)-1-[(1-{2-[(3S)-2,6-dioxopiperidin-3-yl]-1-oxo-2,3-dihydro-1H-isoindol-5-yl}piperidin-4-yl)methyl]pyrrolidin-3-yl]phenyl}-4-oxo-3,4-dihydroquinazolin-6-yl)oxy]-4-fluorophenyl}-3-fluoropyrrolidine-1-sulfonamide]	50 to 500 nM	1 to 10 nM	35 to 70%	35 to 70%	
N#Cc1c(NS(=O)(=O)N2CC[C@@H](F)C2)ccc(F)c1Oc1ccc2ncn(-c3cccc(C4CCN(CC5CCN(c6ccc7c(c6)CN([C@H]6CCC(=O)NC6=O)C7=O)CC5)C4)c3)c(=O)c2c1 (single isomer, unassigned) [Example 259, (3R)-N-{2-cyano-3-[(3-{3-[(3R*)-1-[(1-{2-[(3S)-2,6-dioxopiperidin-3-yl]-1-oxo-2,3-dihydro-1H-isoindol-5-yl}piperidin-4-yl)methyl]pyrrolidin-3-yl]phenyl}-4-oxo-3,4-dihydroquinazolin-6-yl)oxy]-4-fluorophenyl}-3-fluoropyrrolidine-1-sulfonamide]	50 to 500 nM	1 to 10 nM			
N#Cc1c(NS(=O)(=O)N2CC[C@@H](F)C2)ccc(F)c1Oc1ccc2ncn(-c3ccc(N4CCC(CN5CC6(CCC(c7ccc8c(c7)CN(C7CCC(=O)NC7=O)C8=O)CC6)C5)C4)cc3)c(=O)c2c1 (single isomer, unassigned) [Example 260, (3R)-N-(2-cyano-3-{[3-(4-{3-[(7-{2-[(3R*)-2,6-dioxopiperidin-3-yl]-1-oxo-2,3-dihydro-1H-isoindol-5-yl}-2-azaspiro[3.5]nonan-2-yl)methyl]pyrrolidin-1-yl}phenyl)-4-oxo-3,4-dihydroquinazolin-6-yl]oxy}-4-fluorophenyl)-3-fluoropyrrolidine-1-sulfonamide]	50 to 500 nM	1 to 10 nM	35 to 70%	≥ 70%	
